Common to all, as to format: in vivo
Assay [1] has as its system southern corn rootworm (Diabrotica undecimpunctata howardi). Put plainly: Southern corn rootworm (SCRW) soil test. The settings on record: soil concentration 2.5, 5, 6.75 or 10 ppm; mortality eight days after infestation. As to the method:
(§1) For the tick, aphids, souther armyworm, tobacco budworm, house fly, Mexican bean beetle, American cockroach, cat flea, souther corn rootworm, western corn rootworm, black cutworm, and southern root-knot nematode, a solution or suspension was prepared by adding the test compound to a solution of dimethylformamide, acetone, emulsifiers which are alkylaryl polyether alcohols organic sulfonates, and water. The result was a 100 or 500 ppm concentration of the test compound.
(§2) For southern corn rootworm and black cutworm tests, the water-acetone-DMF-emulsifier solution was adjusted for a treatment rate of 2.5, 5, 6.75 or 10 ppm.
(§3) Southern corn rootworm (SCRW), Black cutworm (BCW): Corn seeds were placed in a glass jar and covered with dry sandy loam soil. The 500 ppm test formulation was applied for a soil concentration of 2.5, 5, 6.75 or 10 ppm. As an untreated control, an aliquot of a water-acetone-DMF-emulsifier solution containing no test compound was applied in a similar manner. After incubating covered for 24 hours, the soil was mixed and inoculated with approximately 25 southern corn rootworm eggs. Following an additional 48 hours, two late second to early third instar black cutworms were placed in the jar with a portion of insect diet. Eight days after infestation, mortality was assessed visually for cutworm and by Berlese funnel extraction for rootworm.

In assay [2] the test system is tobacco budworm (Heliothis virescens). As to the kind of experiment: Tobacco budworm (TBW) treated cotton leaf test. Conditions: cotton leaves, 100 ppm; second instar larvae, five days. As to the method:
as §1
Tobacco budworm (TBW): Cotton leaves were wet to runoff with the 100 ppm test compound formulation. As an untreated control, a water-acetone-DMF-emulsifier solution containing no test compound was also applied wet to runoff to cotton leaves. Ten randomly selected second instar tobacco budworm larvae were introduced into plastic containers in which moist dental wicks and the dry treated leaves had been placed. The cups were closed and held for five days. Larvae which were unable to move the length of the body, even upon stimulation by prodding, were considered dead.

Assay [3] relates to house fly (Musca domestica). Put plainly: House fly (HF) bait test. Conditions: sucrose bait, 100 or 250 ppm; adult flies, mortality after 24 hours. As to the method:
as §1
For house fly tests, the water-acetone-DMF-emulsifier solution was adjusted with a 20% by weight aqueous solution of sucrose to provide a final 100 or 250 ppm concentration of the test compound.
House fly (HF): Four to six day old adult house flies were used. The files were immobilized by anesthetizing with carbon dioxide. A bait cup was prepared which contained the 100 or 250 ppm test compound formulation/sucrose solution and one or two absorbent cotton pad(s). As an untreated control, a water-acetone-DMF-emulsifier-sucrose solution containing no test compound was applied in a similar manner. The bait cup was introduced inside the cage prior to admitting 12-25 anesthetized flies. Mortality was assessed after 24 hours.

The test system of assay [4] is black cutworm (Agrotis ipsilon). Put plainly: Black cutworm (BCW) soil test. The settings on record: soil concentration 2.5, 5, 6.75 or 10 ppm; mortality eight days after infestation. As to the method:
as §1, §2, §3

For assay [5], the system named is American cockroach (Periplaneta americana). As to the kind of experiment: American cockroach (ACR) treated food pellet test. Conditions: food pellets with 500 ppm formulation; nymphs, contact and feeding mortality 1 and 5 days after infestation. As to the method: as §1
American cockroach (ACR): Cat food or dog food pellets were added to jars containing 1-2 mls of the 500 ppm test formulation. As an untreated control, an aliquot of a water-acetone-DMF-emulsifier solution containing no test compound was applied in a similar manner. After 48 hours, roach nymphs were added to the jar. Contact and feeding mortally was assessed 1 and 5 days after infestation.

The test system of assay [6] is cotton aphid (Aphis gossypii). As to the kind of experiment: Cotton aphid (CA) foliar spray test. Conditions: cotton plants wet to runoff, 100 or 500 ppm; dead aphids counted after three days. As to the method: as §1
Buckthorn aphid (BA) or cotton aphid (CA): Adult and nymphal stages of buckthorn or cotton aphid were reared on potted dwarf nasturtium or cotton plants, respectively. Plants infested with 100-150 aphids were wet to runoff with the 100 or 500 ppm test compound formulation. As an untreated control, a water-acetone-DMF-emulsifier solution containing no test compound was also applied to runoff to infested plants. The treated plants were stored for one day for buckthorn aphid and three days for cotton aphid, after which the dead aphids were counted.

Assay [7] concerns cotton aphid (Aphis gossypii). As to the kind of experiment: Cotton aphid systemic test (CA-Sys). The settings on record: soil drench 10.0 ppm, aphid control rated three and six days after infestation. The source says:
(§4) For cotton aphid systemic tests and black cutwork—systemic tests, the water-acetone-DMF-emulsifier solution was adjusted for a treatment rate of 10.0 ppm soil concentration.
Cotton aphid—systemic test (CA-Sys): Cotton seeds were placed on top of the soil surface in pots containing moist soil. The test compound solution was applied as a drench to the top of the soil and seeds for a treatment rate equivalent to 10.0 ppm soil concentration. As an untreated control, an aliquot of a water-acetone-DMF-emulsifier solution containing no test compound was applied in a similar manner. The soil surface and seeds were covered with moist soil. The pots were held in the greenhouse for the duration of the bioassay. When the cotyledons of the cotton were expanded (approximately 7 days after planting), the cotton was infested with approximately 25 cotton aphids (mixed population). The plant were rated for aphid control three and six days after infestation.

Assay [8] relates to cat flea (Ctenocephalides felis). As to the kind of experiment: Cat flea (CF) treated filter paper contact test. Conditions: 500 ppm, adult fleas, contact mortality 1 day after infestation. As to the method: as §1
Cat flea (CF), dog tick (DT): Filter papers were treated with an aliquot of the 500 ppm test formulation. As an untreated control, an aliquot of a water-acetone-DMF-emulsifier solution containing no test compound was applied in a similar manner. When dry, 2 treated filters were placed in a vial for the flea and another 2 filters in a vial for the tick. Five adult fleas were added to one vial and 5 adult ticks to the second vial. Contact mortality was assessed 1 day after infestation for the flea and 14 days after infestation for the tick.

Assay [9] has as its system western corn rootworm (Diabrotica virgifera virgifera). As to the kind of experiment: Western corn rootworm (WCRW) soil test. Conditions: soil concentration 0.15 or 0.5 ppm; neonate larvae, mortality six days after infestation. As to the method: as §1
For the western corn rootworm test, the water-acetone-DMF-emulsifier solution was adjusted for a treatment rate of 0.15 or 0.5 ppm.
Western corn rootworm (WCRW): The 500 ppm test formulation was applied to dry sandy loam soil contained in a glass jar for a soil concentration of 0.15 or 0.5 ppm. As an untreated control, an aliquot of a water-acetone-DMF-emulsifier solution containing no test compound was applied in a similar manner. After incubating covered for 24 hours, the soil was mixed and four germinated corn seedlings were added to the jar. Ten neonate western corn rootworm larvae were placed in the jar. Six days after infestation, mortality was assessed by Berlese funnel extraction.

In assay [10] the test system is greenbug aphid (Schizaphis graminum). As to the kind of experiment: Greenbug aphid systemic test (GA-Sys). The settings on record: soil drench 10 or 25 ppm, sorghum; aphid control rated one and three days after infestation. An excerpt: For the greenbug aphid systemic test, the water-acetone-DMF-emulsifier solution was adjusted for a treatment rate of 10 or 25 ppm soil concentration.
Greenburg aphid—systemic test (GA-Sys): Sorghum seeds were placed on top of the soil surface in pots containing moist soil. The test compound solution was applied as a drench to the top of the soil and seeds for a treatment rate equivalent to 10 or 25 ppm soil concentration. As an untreated control, an aliquot of a water-acetone-DMF-emulsifier solution containing no test compound was applied in a similar manner. The soil surface and seeds were covered with moist soil. The pots were held in the greenhouse for the duration of the bioassay. When the sorghum seeds germinated, greenbug aphids were sprinkled evenly over the sorghum pots to about 50 aphids per pot. The plants were rated for aphid control one and three days after infestation.

The test system of assay [11] is black cutworm (Agrotis ipsilon). Put plainly: Black cutworm systemic test (BCW-Sys). Conditions: soil drench 10.0 ppm, corn seedling clipped ten days after treatment; mortality 4 days after infestation.
Description: as §4
Black cutworm—systemic test (BCW-Sys): Corn seeds were placed on top of the soil surface in pots containing moist soil. The test compound solution was applied as a drench to the top of the soil and seeds for a treatment rate equivalent to 10.0 ppm soil concentration. As an untreated control, an aliquot of water-acetone-DMF-emulsifier solution containing no test compound was applied in a similar manner. The soil surface and seeds were covered with moist soil. The pots were held in the greenhouse for the duration of the bioassay. Ten days after treatment, the corn seedling was clipped and placed in a plastic cup with 2 late second to early third instar black cutworm larvae. Mortality was assessed visually 4 days after infestation.

The subject of assay [12] is Mexican bean beetle (Epilachna varivestis). Put plainly: Mexican bean beetle (MBB) treated bean leaf test. Conditions: bean leaves, 100 or 500 ppm; second instar larvae, five days. The protocol: as §1
Southern armyworm (SAW), Mexican bean beetle (MBB): Bean leaves were wet to runoff with the 100 or 500 ppm test compound formulation. As an untreated control, a water-acetone-DMF-emulsifier solution containing no test compound was also applied wet to runoff to bean leaves. Five or six randomly selected second instar southern armyworn larvae or Mexican bean bettle larvae were introduced into each plastic container with the dry treated leaves. The container was closed and held for five days. Larvae which were unable to move the length of the body, even upon stimulation by prodding, were considered dead.

On to `N#Cc1nn(-c2c(Cl)cc(C(F)(F)F)cc2Cl)c(C=NN)c1SC(F)(F)F` [Compound 3, 5-{(N-amino)iminomethylidenyl}-3-cyano-1-(2,6-dichloro-4-trifluoromethylphenyl)-4-trifluoromethylthiopyrazole], for which the SCRW result in assay [1] was “+ (active against 1 or more insects described above up to 100% mortality. This activity is indicated by a “+”)”. The TBW entry in assay [2] was “+ (active against 1 or more insects described above up to 100% mortality. This activity is indicated by a “+”)”. The HF result in assay [3] is listed as “+ (active against 1 or more insects described above up to 100% mortality. This activity is indicated by a “+”)”. Moreover, the BCW result in assay [4] is listed as “+ (active against 1 or more insects described above up to 100% mortality. This activity is indicated by a “+”)”.
On to `CCOC(OCC)c1c([S+]([O-])C(F)(F)F)c(C#N)nn1-c1c(Cl)cc(C(F)(F)F)cc1Cl` (stereo not shown) [Compound 20, 3-Cyano-1-(2,6-dichloro-4-trifluoromethylphenyl)-5-diethoxymethyl-4-trifluoromethylsulfinylpyrazole], for which, in assay [5], the ACR entry was “+ (active against 1 or more insects described above up to 100% mortality. This activity is indicated by a “+”)”. For the same compound, the CA result in [6] was “+ (active against 1 or more insects described above up to 100% mortality. This activity is indicated by a “+”)”. For the same compound, in assay [7], the CA-Sys result was “+ (active against 1 or more insects described above up to 100% mortality. This activity is indicated by a “+”)”. For the same compound, the CF entry in [8] is given as “+ (active against 1 or more insects described above up to 100% mortality. This activity is indicated by a “+”)”.
With `CC(=O)c1c([S+]([O-])C(F)(F)F)c(C#N)nn1-c1c(Cl)cc(C(F)(F)F)cc1Cl` (stereo not shown) [Compound 10, 5-Acetyl-3-cyano-1-(2,6-dichloro-4-trifluoromethylphenyl)-4-trifluoromethylsulfinylpyrazole], the WCRW entry in assay [9] is “+ (active against 1 or more insects described above up to 100% mortality. This activity is indicated by a “+”)”. Also, the GA-Sys result in assay [10] is reported as “+ (active against 1 or more insects described above up to 100% mortality. This activity is indicated by a “+”)”. Moreover, the TBW result in [2] is recorded as “+ (active against 1 or more insects described above up to 100% mortality. This activity is indicated by a “+”)”. Also, in [11], the BCW-Sys result was “+ (active against 1 or more insects described above up to 100% mortality. This activity is indicated by a “+”)”. In assay [12], the MBB result is reported as “+ (active against 1 or more insects described above up to 100% mortality. This activity is indicated by a “+”)”. For the same compound, the BCW entry in assay [4] is “+ (active against 1 or more insects described above up to 100% mortality. This activity is indicated by a “+”)”.
For the compound `CCOC(OCC)c1c(S(=O)(=O)C(F)(F)F)c(C#N)nn1-c1c(Cl)cc(C(F)(F)F)cc1Cl` [Compound 19, 3-Cyano-1-(2,6-dichloro-4-trifluoromethylphenyl)-5-diethoxymethyl-4-trifluoromethylsulfonylpyrazole], the ACR result in [5] is recorded as “+ (active against 1 or more insects described above up to 100% mortality. This activity is indicated by a “+”)”. For the same compound, the TBW result in assay [2] is “+ (active against 1 or more insects described above up to 100% mortality. This activity is indicated by a “+”)”. Also, the CF entry in [8] is “+ (active against 1 or more insects described above up to 100% mortality. This activity is indicated by a “+”)”.
For `CON=Cc1c(SC(F)(F)F)c(C#N)nn1-c1c(Cl)cc(C(F)(F)F)cc1Cl` [Compound 5, 3-Cyano-1-(2,6-dichloro-4-trifluoromethylphenyl)-5-{(N-methoxy)iminomethylidenyl}-4-trifluoromethylthiopyrazole], the WCRW result in [9] was “+ (active against 1 or more insects described above up to 100% mortality. This activity is indicated by a “+”)”. Moreover, in assay [1], the SCRW result was “+ (active against 1 or more insects described above up to 100% mortality. This activity is indicated by a “+”)”. In addition, the HF result in [3] was “+ (active against 1 or more insects described above up to 100% mortality. This activity is indicated by a “+”)”. Moreover, the CA result in [6] is “+ (active against 1 or more insects described above up to 100% mortality. This activity is indicated by a “+”)”. For the same compound, in assay [7], the CA-Sys result is recorded as “+ (active against 1 or more insects described above up to 100% mortality. This activity is indicated by a “+”)”.

These data come from patent publication US6395906B1, “Intermediates to pesticidal 1-arylpyrazoles” (Rhone-Poulenc Inc., priority 1995, dated 2002).
